Data reported in PubChem BioAssay (NCI).
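Compound exposure: 48 hours, 5 concentrations, 96-well plates. Abbreviation: GI50, concentration required for 50% inhibition of growth. TGI: total growth inhibition.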

Columns and labels:
Test in all cases: NCI anticancer screen, dose series, 48 h
SNB-19 CNS = test system: SNB-19 CNS
HCC-2998 colon = test system: HCC-2998 colon
KM12 colon = test system: KM12 colon
SW-620 colon = test system: SW-620 colon
CCRF-CEM leukemia = test system: CCRF-CEM leukemia
PC-3 prostate = test system: PC-3 prostate
RPMI-8226 leukemia = test system: RPMI-8226 leukemia
OVCAR-5 ovarian = test system: OVCAR-5 ovarian
HS 578T breast = test system: HS 578T breast
HOP-92 NSCLC = test system: HOP-92 NSCLC
M14 melanoma = test system: M14 melanoma
HCT-15 colon = test system: HCT-15 colon
MALME-3M melanoma = test system: MALME-3M melanoma
BT-549 breast = test system: BT-549 breast
SK-MEL-28 melanoma = test system: SK-MEL-28 melanoma
K-562 leukemia = test system: K-562 leukemia
RXF 393 renal = test system: RXF 393 renal
SR leukemia = test system: SR leukemia
NCI-H522 lung = test system: NCI-H522 lung
EKVX NSCLC = test system: EKVX NSCLC
SF-539 CNS = test system: SF-539 CNS
MOLT-4 leukemia = test system: MOLT-4 leukemia
HT29 colon = test system: HT29 colon
HCT-116 colon = test system: HCT-116 colon
SNB-75 CNS = test system: SNB-75 CNS
ACHN renal = test system: ACHN renal
TK-10 renal = test system: TK-10 renal
SK-MEL-2 melanoma = test system: SK-MEL-2 melanoma
MDA-MB-435 = test system: MDA-MB-435
NCI-H460 lung = test system: NCI-H460 lung
UO-31 renal = test system: UO-31 renal
NCI/ADR-RES ovarian = test system: NCI/ADR-RES ovarian
786-0 renal = test system: 786-0 renal
T-47D breast = test system: T-47D breast
CAKI-1 renal = test system: CAKI-1 renal
COLO 205 colon = test system: COLO 205 colon
HOP-62 NSCLC = test system: HOP-62 NSCLC
OVCAR-8 ovarian = test system: OVCAR-8 ovarian
MCF7 breast = test system: MCF7 breast
SK-OV-3 ovarian = test system: SK-OV-3 ovarian
A498 renal = test system: A498 renal
U251 CNS = test system: U251 CNS
SF-295 CNS = test system: SF-295 CNS
DU-145 prostate = test system: DU-145 prostate
SK-MEL-5 melanoma = test system: SK-MEL-5 melanoma
A549 NSCLC = test system: A549 NSCLC
IGROV1 ovarian = test system: IGROV1 ovarian
SN12C renal = test system: SN12C renal
SF-268 CNS = test system: SF-268 CNS
MDA-MB-231 breast = test system: MDA-MB-231 breast
UACC-62 melanoma = test system: UACC-62 melanoma
LOX IMVI melanoma = test system: LOX IMVI melanoma
OVCAR-4 ovarian = test system: OVCAR-4 ovarian
NCI-H226 lung = test system: NCI-H226 lung
HL-60(TB) leukemia = test system: HL-60(TB) leukemia
OVCAR-3 ovarian = test system: OVCAR-3 ovarian
NCI-H23 lung = test system: NCI-H23 lung
UACC-257 melanoma = test system: UACC-257 melanoma

COc1ccc(OC(=O)O[C@H]2[C@H](O[C@H]3[C@@H](O)COC(O[C@H]4C[C@H]5[C@@H]6CC=C7C[C@@H](O)CC[C@]7(C)[C@H]6CC[C@]5(C)[C@H]4[C@H](C)C(=O)CCC(C)C)[C@@H]3OC(C)=O)OC[C@@H](O)[C@@H]2O)cc1 (some centres undefined)
GI50 (SNB-19 CNS): 85.7 nM
TGI (SNB-19 CNS): 6560 nM
GI50 (HCC-2998 colon): 4910 nM
TGI (HCC-2998 colon): 21400 nM
GI50 (KM12 colon): 682 nM
TGI (KM12 colon): 19700 nM
GI50 (SW-620 colon): 29.5 nM
TGI (SW-620 colon): 1130 nM
GI50 (CCRF-CEM leukemia): < 10 nM
TGI (CCRF-CEM leukemia): 145 nM
GI50 (PC-3 prostate): 10.3 nM
TGI (PC-3 prostate): 10100 nM
GI50 (RPMI-8226 leukemia): < 10 nM
TGI (RPMI-8226 leukemia): 32.1 nM
GI50 (OVCAR-5 ovarian): 890 nM
TGI (OVCAR-5 ovarian): 15900 nM
GI50 (HS 578T breast): < 10 nM
TGI (HS 578T breast): 185 nM
GI50 (HOP-92 NSCLC): 13 nM
TGI (HOP-92 NSCLC): 2720 nM
GI50 (M14 melanoma): 40 nM
TGI (M14 melanoma): 262 nM
GI50 (HCT-15 colon): 1290 nM
TGI (HCT-15 colon): 11400 nM
GI50 (MALME-3M melanoma): 122 nM
TGI (MALME-3M melanoma): 3840 nM
GI50 (BT-549 breast): 18.5 nM
TGI (BT-549 breast): 15200 nM
GI50 (SK-MEL-28 melanoma): 18.5 nM
TGI (SK-MEL-28 melanoma): 155 nM
GI50 (K-562 leukemia): < 10 nM
TGI (K-562 leukemia): 10600 nM
GI50 (RXF 393 renal): < 10 nM
GI50 (SR leukemia): 10.2 nM
TGI (SR leukemia): 21400 nM
GI50 (NCI-H522 lung): 165 nM
TGI (NCI-H522 lung): 2100 nM
GI50 (EKVX NSCLC): 1640 nM
TGI (EKVX NSCLC): 19600 nM
GI50 (SF-539 CNS): < 10 nM
TGI (SF-539 CNS): 76.4 nM
GI50 (MOLT-4 leukemia): 15.3 nM
GI50 (HT29 colon): 541 nM
TGI (HT29 colon): 18100 nM
GI50 (HCT-116 colon): 62.1 nM
TGI (HCT-116 colon): 14100 nM
GI50 (SNB-75 CNS): < 10 nM
TGI (SNB-75 CNS): 10900 nM
GI50 (ACHN renal): 496 nM
TGI (ACHN renal): 18000 nM
GI50 (TK-10 renal): 2240 nM
TGI (TK-10 renal): 21100 nM
GI50 (SK-MEL-2 melanoma): 19.9 nM
TGI (SK-MEL-2 melanoma): 645 nM
GI50 (MDA-MB-435): 69.5 nM
TGI (MDA-MB-435): 759 nM
GI50 (NCI-H460 lung): 52.4 nM
TGI (NCI-H460 lung): 3330 nM
GI50 (UO-31 renal): 87.4 nM
TGI (UO-31 renal): 995 nM
GI50 (NCI/ADR-RES ovarian): 13000 nM
TGI (NCI/ADR-RES ovarian): > 100000 nM
GI50 (786-0 renal): < 10 nM
TGI (786-0 renal): 3810 nM
GI50 (T-47D breast): 50.5 nM
TGI (T-47D breast): 19800 nM
GI50 (CAKI-1 renal): 28.1 nM
TGI (CAKI-1 renal): 1630 nM
GI50 (COLO 205 colon): 164 nM
TGI (COLO 205 colon): 1160 nM
GI50 (HOP-62 NSCLC): 56.9 nM
TGI (HOP-62 NSCLC): 11400 nM
GI50 (OVCAR-8 ovarian): 12700 nM
TGI (OVCAR-8 ovarian): 50600 nM
GI50 (MCF7 breast): 78.2 nM
TGI (MCF7 breast): 12800 nM
GI50 (SK-OV-3 ovarian): 329 nM
TGI (SK-OV-3 ovarian): 15300 nM
GI50 (A498 renal): 11.6 nM
TGI (A498 renal): 55.9 nM
GI50 (U251 CNS): 12.1 nM
TGI (U251 CNS): 16200 nM
GI50 (SF-295 CNS): < 10 nM
TGI (SF-295 CNS): 19.3 nM
GI50 (DU-145 prostate): 3530 nM
TGI (DU-145 prostate): 22700 nM
GI50 (SK-MEL-5 melanoma): 34.7 nM
TGI (SK-MEL-5 melanoma): 176 nM
GI50 (A549 NSCLC): 145 nM
TGI (A549 NSCLC): 21900 nM
GI50 (IGROV1 ovarian): 335 nM
TGI (IGROV1 ovarian): 18200 nM
GI50 (SN12C renal): 11200 nM
TGI (SN12C renal): 23800 nM
GI50 (SF-268 CNS): 42 nM
TGI (SF-268 CNS): 6990 nM
GI50 (MDA-MB-231 breast): 961 nM
TGI (MDA-MB-231 breast): 18100 nM
GI50 (UACC-62 melanoma): 17.1 nM
TGI (UACC-62 melanoma): 51.6 nM
GI50 (LOX IMVI melanoma): 26.5 nM
TGI (LOX IMVI melanoma): 177 nM
GI50 (OVCAR-4 ovarian): 1120 nM
TGI (OVCAR-4 ovarian): 20300 nM
GI50 (NCI-H226 lung): 580 nM
TGI (NCI-H226 lung): 18700 nM
GI50 (HL-60(TB) leukemia): 68.6 nM
TGI (HL-60(TB) leukemia): 18700 nM
GI50 (OVCAR-3 ovarian): 10700 nM
TGI (OVCAR-3 ovarian): 24500 nM
GI50 (NCI-H23 lung): 966 nM
TGI (NCI-H23 lung): 19100 nM
GI50 (UACC-257 melanoma): 172 nM
TGI (UACC-257 melanoma): 520 nM
